Measured values from US20250161297A1, “COMPOSITIONS AND METHODS FOR INHIBITING FSP1” (THE REGENTS OF THE UNIVERSITY OF CALIFORNIA, priority 2022, published 2025).
Entries after “also recorded” stand apart in the source; their conditions may differ. Residues, ends and D or L forms follow the SMILES beside them. *: point of attachment. Cbz = O=C(OCc1ccccc1)*; CH2F = FC*

How the values were obtained:
H460^C cells [1] = experiment: GPX4 inhibitor-induced cell death with FSEN1 co-treatment; type: cell-based
Protocol: (§1) For cell-based screen, cells were seeded in triplicate at a density of 500-750 cells per 50 μL per well in black 384-well plates (NUNC) and (Corning) 24 hr before start of imaging. After 24 hr, an additional 50 μL of drug infused medium containing 30 nM SYTOX Green Dead Cell Stain was carefully placed into the wells on top of existing medium. The plates were immediately transferred to an IncuCyte S3 imaging system (Essen Bioscience) enclosed in an incubator set to 37° C. and 5% CO2. One image per well were captured in the phase, green, and red channels every 1.5 or 3 hr over a 24 hr period, and the ratio of SYTOX Green-positive objects (dead cells) to SYTOX Green-positive plus Sg-SAFE mCherry-positive objects (total cells) was quantified using S3 image analysis software (Essen Bioscience). For each treatment condition, the SYTOX-to-′SYTOX+mCherry′-object ratio was plotted against the 24 hr imaging interval, the Area Under the Curve (AUC) was calculated and the average AUC was plotted using Prism (GraphPad). To calculate the half-maximal effective concentration (EC50) values, the AUC curve was fit to a variable slope function comparing response to drug concentration.
(§2) Synergy experiments: For cell-based synergy experiments, cells were seeded at a density of 750 cells per 25 μL per well in four black 384-well plates (Corning) 24 hr before start of imaging. After 24 hr, an additional 25 μL of drug infused medium containing 30 nM SYTOX Green Dead Cell Stain was carefully placed into the wells on top of existing medium. The plates were immediately transferred to an IncuCyte S3 imaging system (Essen Bioscience) enclosed in an incubator set to 37° C. and 5% CO2. One image per well were captured in the phase, green, and red channels every 4 hr over a 24 hr period, and the ratio of SYTOX Green-positive objects (dead cells) to SYTOX Green-positive plus Sg-SAFE mCherry-positive objects (total cells) was quantified using S3 image analysis software (Essen Bioscience). For each treatment condition, the SYTOX-to-′SYTOX+mCherry′-object ratio was plotted against the 24 hr imaging interval, the Area Under the Curve (AUC) was calculated, and the average AUC was plotted as a function of drug concentration (for example, RSL3) using Prism (GraphPad). To calculate the half-maximal effective concentration (EC50) values, the AUC curve was fit to a variable slope function comparing response to drug concentration.

H460^C FSP1^KO cells = experiment: FDA and Bioactive Library synthetic lethal screen; type: cell-based; settings: 24 h
Protocol: FDA and Bioactive Library Screen: For FDA and Bioactive Library Screen experiments, cells were seeded at a density of 750 cells per 25 uL per well in black 384-well plates (NUNC) and (Corning) 24 hr before start of imaging. After 24 hr, an additional 25 μL of drug infused medium containing 30 nM SYTOX Green Dead Cell Stain was carefully placed into the wells on top of existing medium. The plates were immediately transferred to an IncuCyte S3 imaging system (Essen Bioscience) enclosed in an incubator set to 37° C. and 5% CO2. One image per well were captured in the phase, green, and red channels every 4 hr over a 24 hr period, and the ratio of SYTOX Green-positive objects (dead cells) to SYTOX Green-positive plus SgSAFE mCherry-positive objects (total cells) was quantified using S3 image analysis software (Essen Bioscience). For each treatment condition, the SYTOX-to-‘SYTOX+mCherry’-object ratio was plotted against the 24 hr imaging interval, the Area Under the Curve (AUC) was calculated, and the average AUC was plotted as a function of drug concentration (for example, RSL3) using Prism (GraphPad). To calculate the half-maximal effective concentration (EC50) values, the AUC curve was fit to a variable slope function comparing response to drug concentration. […]

H460^C cells [2] = experiment: DHA- and FINO2-induced cell death with FSEN1 co-treatment; type: cell-based
Protocol: as §1, §2

[3] = target: T1, His tagged FSP1 (WT) protein (Homo sapiens, UniProt Q9BRQ8); experiment: in vitro FSP1 activity assay (NADH oxidation during CoQ1 reduction, 355 nm absorbance); type: biochemical; settings: inhibition of FSP1 Coenzyme Q1 oxidoreductase activity in vitro
T1 construct: made in house; host or cells: E. coli LOBSTR-BL21 (DE3)
T1 sequence (Q9BRQ8 1-373): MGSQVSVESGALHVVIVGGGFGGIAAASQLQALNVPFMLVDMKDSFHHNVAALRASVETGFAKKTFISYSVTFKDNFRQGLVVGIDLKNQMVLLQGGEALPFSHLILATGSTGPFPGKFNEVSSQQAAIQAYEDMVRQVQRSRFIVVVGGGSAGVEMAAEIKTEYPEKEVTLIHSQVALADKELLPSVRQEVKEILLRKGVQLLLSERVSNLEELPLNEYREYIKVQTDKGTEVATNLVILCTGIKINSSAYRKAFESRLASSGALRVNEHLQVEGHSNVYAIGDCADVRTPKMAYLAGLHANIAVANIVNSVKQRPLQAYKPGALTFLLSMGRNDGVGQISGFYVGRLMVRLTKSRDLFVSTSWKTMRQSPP
Protocol: For small molecule drug screen, 0.5 μL of compounds were stamped into 384 well NBS plates (Corning) in dose response diluted 2-fold with a high of 2 mM. 60 mL of purified His tagged FSP1 (WT) protein at 50 nM was prepared and 12.5 μL of this protein solution was aliquoted into 384 well NBS-plates (Corning) containing compound and allowed to incubate for 30 min at room temperature. After 30 min incubation 12.5 μL of reaction buffer (1 mM NADH, 800 µM CoQ1) was added into the 384 well NBS-plates containing protein and compounds for a final concentration of 25 nM His tagged FSP1 (WT) protein, 500 µM NADH (Sigma-Aldrich) and 400 µM CoQ1 (Sigma-Aldrich). Each well contained a 25 μL mixture and 40 µM compound in the primary screen. […] Measurements were taken at 355 nm with a EnVision 2104 multilabel plate reader (PerkinElmer). […] Compounds with confirmed data that have normalized absorbance values of less than 0.164 were chosen for dose response. […]
To measure NADH oxidation kinetics, 25 nM recombinant FSP1 was combined with 500 µM NADH and C400 µM Coenzyme Q1 in a total volume of 100 μl PBS. The change in absorbance at 355 nm, corresponding to NADH oxidation, was determined over the course of 4 h. All measurements were taken using a SpectraMax i3 Multi-Mode Platform plate reader (Molecular Devices). […]

H460^C GPX4^KO cells = experiment: cell-based assay of FSP1 activity, cell death (SYTOX Green/mCherry lethal fraction)
Protocol: as §1
In addition to the in vitro activity assay, an orthogonal cell-based assay of FSP1 activity was also developed. […]

H460^C Cas9 cells = experiment: cell-based assay, cell death in control cells
Protocol: as §1, with “concentration. […]” for “concentration.”
Employing this assay, the amount of cell death induced by 168 FSP1 inhibitors in the H460^C Cas9 and H460^C GPX4^KO cells was assessed. […]

[4] = tested on: panel of cancer cell lines of various tissue origins; experiment: RSL3-induced cell death in a panel of cancer cell lines; type: cell-based; settings: RSL3 plus FSEN1; 2 μM Fer-1
Protocol: as §1, with “concentration. […]” for “concentration.”

COC(=O)C[C@H](NC(=O)[C@H](C)NC(=O)[C@@H](NC(=O)OCc1ccccc1)C(C)C)C(=O)CF [Z-VAD] (Cbz-Val-Ala-Asp(OMe)-CH2F)
effect on cell death induced by co-treatment of FSEN1 with RSL3 (H460^C cells [1]): no effect

C[C@H]1[C@@H](O)O[C@@H]2O[C@@]3(C)CC[C@H]4[C@H](C)CC[C@@H]1[C@@]24OO3 [DHA, dihydroartemisinin]
cytotoxicity in H460^C FSP1^KO cells (H460^C FSP1^KO cells): selectively induced cell death
EC50 (H460^C cells [2]; DHA and FSEN1 treatment together): 21.3 µM

COC(=O)c1ccc([C@@H]2c3[nH]c4ccccc4c3C[C@@H](C(=O)OC)N2C(=O)CCl)cc1 [RSL3]
cytotoxicity in H460^C FSP1^KO cells (H460^C FSP1^KO cells): cytotoxic

Cc1ccc(-c2c(C#N)c(N)n3c(nc4ccccc43)c2C#N)cc1 [iFSP1]
IC50 [3]: 4.01 µM
cell death in H460^C GPX4^KO cells (H460^C GPX4^KO cells): sufficient to trigger ferroptosis; also recorded: selectively triggered cell death
cell death in H460^C Cas9 cells (H460^C Cas9 cells): but not in the H460^C Cas9 cells

COC1=C(OC)C(=O)C(CCCCCCCCCCO)=C(C)C1=O [idebenone]
effect on cell death induced by co-treatment of FSEN1 with RSL3 (H460^C cells [1]): blocked
effect on cell death induced by DHA and FSEN1 together (H460^C cells [2]): strongly suppressed

tocopherol
effect on cell death induced by co-treatment of FSEN1 with RSL3 (H460^C cells [1]): blocked
effect on cell death induced by DHA and FSEN1 together (H460^C cells [2]): strongly suppressed

CN1C(=O)NC(Cc2c[nH]c3c(Cl)cccc23)C1=O (stereo not drawn) [Nects]
effect on cell death induced by co-treatment of FSEN1 with RSL3 (H460^C cells [1]): no effect

CCOC(=O)c1ccc(NC2CCCCC2)c(N)c1 [ferrostatin-1]
effect on cell death induced by co-treatment of FSEN1 with RSL3 (H460^C cells [1]): blocked
effect on cell death by co-treatment [4]: rescued
effect on cell death induced by DHA and FSEN1 together (H460^C cells [2]): strongly suppressed
